Measured values reported in patent US20220071939A1, “COMPOUNDS AND METHODS FOR THE TREATMENT OF POLYCYSTIC KIDNEY DISEASE (PKD)” (Resilio Therapeutics, LLC, priority 2018, published 2022).
Entries after “also recorded” stand apart in the source; their conditions may differ.

How the values were obtained:
[1] = tested on: human renal mixed epithelial cells in 2D cultures from Autosomal Dominant Polycystic Kidney Disease (ADPKD) donors; experiment: 2D cellular toxicity assay (viability by ATP release, Cell TiterGlo kit); assay type: cell-based
Method: (§1) FIG. 1 is a plot of cell viability as a function of difluoromethyl omithine (DFMO) concentration, showing the viability of primary ADPKD cells in 2D culture as measured by ATP release using Cell TiterGlo kit. Studies were performed on DFMO, the metabolic product of DFMO-prodrugs, in primary cell cultures of 2 dimensional (2D) cellular toxicity assays, 3 dimensional (3D) cyst formation assays and 3D tubulogenesis assays. DFMO was less than 10% toxic (90% viable) to human renal mixed epithelial cells in 2D cultures from Autosomal Dominant Polycystic Kidney Disease (ADPKD) donors up to 10 mM DFMO concentration as measured using a Cell Titer Go kit (FIG. 1). In the 3D cyst cultures, a population of mixed cells from a surgically resected cyst from a donor ADPKD kidney is combined with human kidney fibroblasts to grow cysts in a proprietary media (Discovery BioMed, Inc) that contains conditioned media from kidney fibroblasts and a Biogel matrix (DiscoveryBioMed). Using light microscopy to count cysts, the number of cysts formed in 3D cultures decreased in a dose-dependent fashion to 50% of controls at 10 mM DFMO (FIG. 2).

[2] = tested on: cysts formed from ADPKD donor cells in 3D cultures; experiment: 3D cyst formation assay (cyst number and cyst size by light microscopy); assay type: cell-based, human; settings: 3D culture
Method: as §1, with “Studies” for “FIG. 1 is a plot of cell viability as a function of difluoromethyl omithine (DFMO) concentration, showing the viability of primary ADPKD cells in 2D culture as measured by ATP release using Cell TiterGlo kit. Studies”, “2). Photomicrographs of cysts formed from ADPKD donor cells in 3D cultures show a time dependent change in cyst size.” for “2).”

[3] = tested on: normal human kidney (NHK) cells in 3D cultures; experiment: 3D tubulogenesis assay; assay type: cell-based; settings: 10 mM DFMO
Method: As a further proof of the potential utility of DFMO/DFMO-prodrugs in ADPKD patients, we also performed a tubulogenesis assay with normal human kidney cells in 3D cultures. Vehicle treated normal human kidney (NHK) cells form tubules by Day 3 in 3D cultures (FIG. 5) as do 10 mM DFMO-treated NHK cells, which also form tubules under the same conditions (FIG. 6).

[4] = 2D culture, up to 10 mM DFMO, Cell Titer Glo (ATP release), FIG. 1

tubule formation ([3]; Day 3, FIG. 6): form tubules
tubule numbers, maturation and elongation versus vehicle ([3]; visual comparison over time): appear similar
Substance: difluoromethylornithine [DFMO]
cell viability [1, 4]: 90%
toxicity to ADPKD cells [1, 4]: less than 10%
cell killing in 2D cultures ([1]; ADPKD cells, 2D cultures): not killed
cyst size over time ([2]; 10 mM DFMO, Day 0 to Day 4, FIG. 4): decreases with time; also recorded: slight increase on Day 1 followed by a steady decrease in cyst size by Day 4 when the cyst is smaller than on Day 0
number of cysts formed, relative to controls ([2]; 10 mM DFMO, FIG. 2): 50 % of controls
number of cysts versus DFMO concentration ([2]; FIG. 2): decrease in a dose-dependent manner
